Source: ChEMBL document CHEMBL3885881, “DrugMatrix”

Species: Rattus norvegicus
Assay: DrugMatrix - Regimen: Daily Repeat
Type: toxicity, organism-based, Sprague-Dawley
Set-up: regimen Daily Repeat, gender Male, age 6-8 weeks
Conditions: in vivo, po, 84 mg/kg, route oral GAVAGE, dose level High, vehicle 100 % WATER; for ABSOLUTE BASOPHIL / ABSOLUTE EOSINOPHIL / ABSOLUTE LYMPHOCYTE / ABSOLUTE MONOCYTE / ABSOLUTE SEGMENTED NEUTROPHIL / BASOPHIL / EOSINOPHIL / ERYTHROCYTE COUNT / HEMATOCRIT / HEMOGLOBIN / LEUKOCYTE COUNT / LYMPHOCYTE / MEAN CORPUSCULAR HEMOGLOBIN / MEAN CORPUSCULAR HEMOGLOBIN CONCENTRATION / MEAN CORPUSCULAR VOLUME / MONOCYTE / NEUTROPHIL / NUCLEATED RED BLOOD CELLS / PLATELET COUNT: tissue Blood; for ALANINE AMINOTRANSFERASE / ALBUMIN / ALKALINE PHOSPHATASE / ASPARTATE AMINOTRANSFERASE / BLOOD UREA NITROGEN / CARBON DIOXIDE / CHLORIDE / CHOLESTEROL / CREATINE PHOSPHOKINASE / CREATININE / GLUCOSE / LACTATE DEHYDROGENASE / LIPASE / PHOSPHORUS / POTASSIUM / SODIUM / TOTAL BILIRUBIN / TOTAL PROTEIN / URIC ACID: tissue Plasma

**Q.** How did the “ABSOLUTE BASOPHIL” value (72 h, time 3 day) turn out when Cc1nccn1CC1CCc2c(c3ccccc3n2C)C1=O (stereo unspecified) [ONDANSETRON] was run?
**A.** 0 CELLS/uL

**Q.** What about the “ABSOLUTE EOSINOPHIL” value (72 h, time 3 day) of the same molecule?
**A.** 113.33 CELLS/uL

**Q.** What about the “ABSOLUTE LYMPHOCYTE” value (72 h, time 3 day) of the same molecule?
**A.** 15932.67 CELLS/uL

**Q.** What about the “ABSOLUTE MONOCYTE” value (72 h, time 3 day) of the same molecule?
**A.** 298.67 CELLS/uL

**Q.** And the “ABSOLUTE SEGMENTED NEUTROPHIL” value (72 h, time 3 day)?
**A.** 1422 CELLS/uL

**Q.** And the BASOPHIL (72 h, time 3 day)?
**A.** 0%

**Q.** And the EOSINOPHIL (72 h, time 3 day)?
**A.** 0.67%

**Q.** And the “ERYTHROCYTE COUNT” value (72 h, time 3 day)?
**A.** 5.63 x10E6/uL

**Q.** What about the HEMATOCRIT (72 h, time 3 day) of the same molecule?
**A.** 35.6%

**Q.** What about the HEMOGLOBIN (72 h, time 3 day) of the same molecule?
**A.** 14.17 G/DL

**Q.** And the “LEUKOCYTE COUNT” value (72 h, time 3 day)?
**A.** 17.77 x10E3/uL

**Q.** And the LYMPHOCYTE (72 h, time 3 day)?
**A.** 90%

**Q.** What about the “MEAN CORPUSCULAR HEMOGLOBIN” value (72 h, time 3 day) of the same molecule?
**A.** 25.3 pg

**Q.** And the “MEAN CORPUSCULAR HEMOGLOBIN CONCENTRATION” value (72 h, time 3 day)?
**A.** 39.83 G/DL

**Q.** And the “MEAN CORPUSCULAR VOLUME” value (72 h, time 3 day)?
**A.** 63.53 fL

**Q.** And the MONOCYTE (72 h, time 3 day)?
**A.** 1.67%

**Q.** What about the NEUTROPHIL (72 h, time 3 day) of the same molecule?
**A.** 7.67%

**Q.** What about the “NUCLEATED RED BLOOD CELLS” value (72 h, time 3 day) of the same molecule?
**A.** 0 /100WBC

**Q.** And the “PLATELET COUNT” value (72 h, time 3 day)?
**A.** 1296 x10E3/uL

**Q.** And the “ALANINE AMINOTRANSFERASE” value (72 h, time 3 day)?
**A.** 62.67 u/L

**Q.** What about the ALBUMIN (72 h, time 3 day) of the same molecule?
**A.** 4.27 G/DL

**Q.** And the “ALKALINE PHOSPHATASE” value (72 h, time 3 day)?
**A.** 366.67 u/L

**Q.** And the “ASPARTATE AMINOTRANSFERASE” value (72 h, time 3 day)?
**A.** 100.67 u/L

**Q.** What about the “BLOOD UREA NITROGEN” value (72 h, time 3 day) of the same molecule?
**A.** 14.67 mg/dL

**Q.** What about the “CARBON DIOXIDE” value (72 h, time 3 day) of the same molecule?
**A.** 26.67 mmol/L

**Q.** What about the CHLORIDE (72 h, time 3 day) of the same molecule?
**A.** 101.33 MEQ/L

**Q.** And the CHOLESTEROL (72 h, time 3 day)?
**A.** 73.67 mg/dL

**Q.** And the “CREATINE PHOSPHOKINASE” value (72 h, time 3 day)?
**A.** 312.67 u/L

**Q.** What about the CREATININE (72 h, time 3 day) of the same molecule?
**A.** 0.28 mg/dL

**Q.** What about the GLUCOSE (72 h, time 3 day) of the same molecule?
**A.** 150 mg/dL

**Q.** What about the “LACTATE DEHYDROGENASE” value (72 h, time 3 day) of the same molecule?
**A.** 488.67 u/L

**Q.** And the LIPASE (72 h, time 3 day)?
**A.** 9.67 u/L

**Q.** What about the PHOSPHORUS (72 h, time 3 day) of the same molecule?
**A.** 13.83 mg/dL

**Q.** What about the POTASSIUM (72 h, time 3 day) of the same molecule?
**A.** 7.1 MEQ/L

**Q.** What about the SODIUM (72 h, time 3 day) of the same molecule?
**A.** 145.17 MEQ/L

**Q.** What about the “TOTAL BILIRUBIN” value (72 h, time 3 day) of the same molecule?
**A.** 0.17 mg/dL

**Q.** What about the “TOTAL PROTEIN” value (72 h, time 3 day) of the same molecule?
**A.** 5.87 G/DL

**Q.** What about the “URIC ACID” value (72 h, time 3 day) of the same molecule?
**A.** 1.77 mg/dL

**Q.** What about the “ABSOLUTE BASOPHIL” value (120 h, time 5 day) of the same molecule?
**A.** 0 CELLS/uL

**Q.** What about the “ABSOLUTE EOSINOPHIL” value (120 h, time 5 day) of the same molecule?
**A.** 0 CELLS/uL

**Q.** And the “ABSOLUTE LYMPHOCYTE” value (120 h, time 5 day)?
**A.** 12972 CELLS/uL

**Q.** What about the “ABSOLUTE MONOCYTE” value (120 h, time 5 day) of the same molecule?
**A.** 0 CELLS/uL

**Q.** What about the “ABSOLUTE SEGMENTED NEUTROPHIL” value (120 h, time 5 day) of the same molecule?
**A.** 828 CELLS/uL

**Q.** And the BASOPHIL (120 h, time 5 day)?
**A.** 0%

**Q.** And the EOSINOPHIL (120 h, time 5 day)?
**A.** 0%

**Q.** What about the “ERYTHROCYTE COUNT” value (120 h, time 5 day) of the same molecule?
**A.** 5.39 x10E6/uL

**Q.** And the HEMATOCRIT (120 h, time 5 day)?
**A.** 33.4%

**Q.** What about the HEMOGLOBIN (120 h, time 5 day) of the same molecule?
**A.** 13.9 G/DL

**Q.** What about the “LEUKOCYTE COUNT” value (120 h, time 5 day) of the same molecule?
**A.** 13.8 x10E3/uL

**Q.** What about the LYMPHOCYTE (120 h, time 5 day) of the same molecule?
**A.** 94%

**Q.** What about the “MEAN CORPUSCULAR HEMOGLOBIN” value (120 h, time 5 day) of the same molecule?
**A.** 25.8 pg

**Q.** And the “MEAN CORPUSCULAR HEMOGLOBIN CONCENTRATION” value (120 h, time 5 day)?
**A.** 41.6 G/DL

**Q.** What about the “MEAN CORPUSCULAR VOLUME” value (120 h, time 5 day) of the same molecule?
**A.** 61.9 fL

**Q.** What about the MONOCYTE (120 h, time 5 day) of the same molecule?
**A.** 0%

**Q.** What about the NEUTROPHIL (120 h, time 5 day) of the same molecule?
**A.** 6%

**Q.** What about the “NUCLEATED RED BLOOD CELLS” value (120 h, time 5 day) of the same molecule?
**A.** 0 /100WBC

**Q.** What about the “PLATELET COUNT” value (120 h, time 5 day) of the same molecule?
**A.** 1460 x10E3/uL

**Q.** And the “ALANINE AMINOTRANSFERASE” value (120 h, time 5 day)?
**A.** 63 u/L

**Q.** And the ALBUMIN (120 h, time 5 day)?
**A.** 4.2 G/DL

**Q.** And the “ALKALINE PHOSPHATASE” value (120 h, time 5 day)?
**A.** 265 u/L

**Q.** And the “ASPARTATE AMINOTRANSFERASE” value (120 h, time 5 day)?
**A.** 62 u/L

**Q.** What about the “BLOOD UREA NITROGEN” value (120 h, time 5 day) of the same molecule?
**A.** 20 mg/dL

**Q.** And the “CARBON DIOXIDE” value (120 h, time 5 day)?
**A.** 30 mmol/L

**Q.** And the CHLORIDE (120 h, time 5 day)?
**A.** 103 MEQ/L

**Q.** And the CHOLESTEROL (120 h, time 5 day)?
**A.** 69 mg/dL

**Q.** What about the “CREATINE PHOSPHOKINASE” value (120 h, time 5 day) of the same molecule?
**A.** 151 u/L

**Q.** What about the CREATININE (120 h, time 5 day) of the same molecule?
**A.** 0.29 mg/dL

**Q.** And the GLUCOSE (120 h, time 5 day)?
**A.** 150 mg/dL

**Q.** And the “LACTATE DEHYDROGENASE” value (120 h, time 5 day)?
**A.** 89 u/L

**Q.** And the LIPASE (120 h, time 5 day)?
**A.** 10 u/L

**Q.** What about the PHOSPHORUS (120 h, time 5 day) of the same molecule?
**A.** 11.8 mg/dL

**Q.** And the POTASSIUM (120 h, time 5 day)?
**A.** 6.81 MEQ/L

**Q.** And the SODIUM (120 h, time 5 day)?
**A.** 145.9 MEQ/L

**Q.** And the “TOTAL BILIRUBIN” value (120 h, time 5 day)?
**A.** 0.1 mg/dL

**Q.** And the “TOTAL PROTEIN” value (120 h, time 5 day)?
**A.** 6.2 G/DL

**Q.** What about the “URIC ACID” value (120 h, time 5 day) of the same molecule?
**A.** 1.4 mg/dL
